Consider 56 compounds from PubChem BioAssay AID493132 (Sanford-Burnham Center for Chemical Genomics, 2011).

Activity calls are given as the source filed them.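 The calls were made as follows: active = EC50 below 100 µM for activating human gut alkaline phosphatase; inactive = the rest.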

In general, EC50 refers to the concentration at which the effect is half-maximal.

The target of this assay is Intestinal-type alkaline phosphatase (Homo sapiens) (UniProt P09923). The experiment in a line: potency of intestinal alkaline phosphatase activation – biochemical, luminescence, SAR follow-up (AID 493132). Particulars: purified IAP, CDP-Star luminescence, 30 min.
Intestinal-type alkaline phosphatase (Homo sapiens), sequence (P09923 whole entry, looked up): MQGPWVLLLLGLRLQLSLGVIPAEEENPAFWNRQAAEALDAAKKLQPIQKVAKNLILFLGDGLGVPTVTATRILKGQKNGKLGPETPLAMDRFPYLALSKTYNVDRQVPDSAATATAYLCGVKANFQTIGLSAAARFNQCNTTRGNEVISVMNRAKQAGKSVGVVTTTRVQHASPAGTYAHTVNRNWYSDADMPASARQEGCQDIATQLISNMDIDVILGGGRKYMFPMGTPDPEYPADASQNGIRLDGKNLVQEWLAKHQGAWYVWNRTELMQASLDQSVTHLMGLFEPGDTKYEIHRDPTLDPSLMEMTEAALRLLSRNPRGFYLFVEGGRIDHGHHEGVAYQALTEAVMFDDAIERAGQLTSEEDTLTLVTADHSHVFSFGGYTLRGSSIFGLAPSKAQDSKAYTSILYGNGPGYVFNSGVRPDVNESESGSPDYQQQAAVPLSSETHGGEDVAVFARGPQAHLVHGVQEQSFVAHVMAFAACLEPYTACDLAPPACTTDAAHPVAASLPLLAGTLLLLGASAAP
`COc1cccc(C=NNC(=O)C2=NNC(=O)C2C)c1O` (stereo unspecified): the EC50 is 8.22 µM.

On to `COc1cccc(C=NNC(=O)c2[nH]nc3c2CCc2ccccc2-3)c1O`, for which the EC50 was 9.65 µM.

In the case of `O=C(N/N=C/c1cc(Br)ccc1O)c1cc(C2CC2)[nH]n1`, the EC50 was 11.3 µM.

On to `Cc1ccc(O)c(C=NNC(=O)c2[nH]ncc2Br)c1`, for which the half-maximal effective concentration (EC50) was 18.9 µM.

For the compound `O=C(N/N=C/c1ccc2c(c1)OCO2)C(=O)N/N=C/c1ccc2c(c1)OCO2`, the EC50 is > 100 µM (inactive).

As for `Cn1cccc1-c1cc(C(=O)NN=Cc2cc(Br)ccc2O)[nH]n1`, the EC50 is 9.91 µM.

As for `CN(C)c1ccc(/C=N/NC(=O)C(=O)N/N=C/c2ccc(N(C)C)cc2)cc1`, the EC50 was > 100 µM (inactive).

Consider `COc1cccc(C=NNC(=O)C(=O)NN=Cc2cccc(OC)c2OC)c1OC`, for which the EC50 is 30.4 µM.

As to `COc1cc(/C=N/NC(=O)C(=O)N/N=C/c2ccc(O)c(OC)c2)ccc1O`, the EC50 was 27.9 µM.

On to `CCCCOc1ccc(/C=N/NC(=O)C(=O)N/N=C/c2ccc(OCCCC)cc2)cc1`, for which the EC50 is > 100 µM (inactive).

Regarding `CCOc1cc(/C=N/NC(=O)C(=O)N/N=C/c2ccc(O)c(OCC)c2)ccc1O`, the EC50 is > 100 µM (inactive).

Take `O=C(N/N=C\c1ccc2c(c1)OCO2)C(=O)N/N=C/c1ccc2c(c1)OCO2`: the EC50 is > 100 µM (inactive).

Take `O=C(N/N=C/c1c(O)ccc2ccccc12)C(=O)N/N=C/c1c(O)ccc2ccccc12`: the EC50 was > 100 µM (inactive).

On to `O=C(N/N=C/c1cc(Br)ccc1O)C(=O)N/N=C/c1cc(Br)ccc1O`, for which the concentration giving a half-maximal response (EC50) was 11 µM.

For the compound `Cc1cc(C(=O)N/N=C/c2cc(Br)ccc2O)n[nH]1`, the half-maximal effective concentration (EC50) was 9.33 µM.

For the compound `O=C(N/N=C/c1ccccc1C(=O)O)C(=O)N/N=C/c1ccccc1C(=O)O`, the EC50 is 39.3 µM.

As to `COc1cccc(C=NNC(=O)C(=O)NN=Cc2cccc(OC)c2O)c1O`, the EC50 is 9.12 µM.

Turning to `COc1cccc(C=NNC(=O)c2cc(-c3cccn3C)n[nH]2)c1O`, the EC50 is 8.6 µM.

For `O=C(NNC(=S)NC(=O)c1ccccc1[N+](=O)[O-])c1ccccc1O`, the EC50 was 15.3 µM.

Regarding `C/C(=N\NC(=O)c1[nH]nc2c1CCc1ccccc1-2)c1ccccc1O`, the EC50 is 8.62 µM.

Take `N#CCOc1ccccc1/C=N/NC(=O)C(=O)N/N=C/c1ccccc1OCC#N`: the EC50 was 86.5 µM.

Turning to `O=C(N/N=C/c1ccccc1O)c1cc(C2CC2)[nH]n1`, the EC50 was 10.2 µM.

Take `Cc1ccc(-c2cc(C(=O)NN=Cc3ccccc3O)n[nH]2)o1`: the EC50 is 6.19 µM.

Turning to `CC(C)C(=O)NC(=S)Nc1ccccc1C(=O)Nc1ccccc1`, the EC50 is 8.68 µM.

As to `O=C(NN=Cc1ccccc1)C(=O)NN=Cc1ccccc1`, the EC50 was 30.7 µM.

`O=C(NN=Cc1ccc(O)cc1O)C(=O)NN=Cc1ccc(O)cc1O`: the EC50 is 6.5 µM.

On to `C/C(=N\NC(=O)c1cc(C)[nH]n1)c1ccc2ccccc2c1O`, for which the EC50 was 6.59 µM.

On to `COc1ccc(OC)c(/C=N/NC(=O)C(=O)N/N=C/c2cc(OC)ccc2OC)c1`, for which the EC50 was 90.7 µM.

For `Cc1cc(C(=O)N/N=C\c2cc(C(C)(C)C)ccc2O)n[nH]1`, the half-maximal effective concentration (EC50) is 7.65 µM.

For the compound `CCOc1cccc(C=NNC(=O)c2cc(C3CC3)[nH]n2)c1O`, the EC50 is 7.63 µM.

As for `COc1ccc(-c2cc(C(=O)NN=Cc3c(O)ccc4ccccc34)[nH]n2)cc1`, the EC50 was 19.6 µM.

For the compound `COc1ccc(-c2csc(Nc3cccc4ccccc34)n2)cc1F`, the EC50 is > 100 µM (inactive).

On to `O=C(N/N=C/c1c(O)ccc2ccccc12)c1cc(-c2cccs2)[nH]n1`, for which the EC50 was 11.1 µM.

With `O=C(N/N=C/c1ccccc1O)c1n[nH]c2c1CCC2`, the EC50 is 8.25 µM.

As for `COC(=O)c1ccc(/C=N/NC(=O)C(=O)N/N=C/c2ccc(C(=O)OC)cc2)cc1`, the EC50 is > 100 µM (inactive).

With `O=C1Nc2ccc(Br)cc2C12NNc1ccccc1O2` (stereo unspecified), the EC50 was 0.689 µM.

Turning to `O=C(N/N=C\c1cccc(O)c1)C(=O)N/N=C/c1cccc(O)c1`, the half-maximal effective concentration (EC50) is 45 µM.

On to `O=C(NC(=S)NNC(=O)c1ccccc1O)c1ccc(F)cc1`, for which the EC50 is 9.41 µM.

`CC(=O)Nc1cccc(C(=O)NNC(=O)c2n[nH]c(=O)c3ccccc23)c1`: the EC50 was 9.05 µM.

`CC(=NNC(=O)C(=O)NN=C(C)c1cccc(O)c1)c1cccc(O)c1`: the concentration for a half-maximal effect (EC50) is 84.6 µM.

In the case of `Cc1cc(C(=O)NN=Cc2cc(Cl)cc([N+](=O)[O-])c2O)n[nH]1`, the EC50 was 13.6 µM.

Turning to `OC(c1nc2ccc(F)cc2[nH]1)C(O)c1nc2ccc(F)cc2[nH]1` (stereo unspecified), the EC50 is 6.78 µM.

Take `CC(C)Oc1ccccc1/C=N/NC(=O)C(=O)N/N=C/c1ccccc1OC(C)C`: the EC50 is 36.4 µM.

With `CC(=O)Nc1ccc(/C=N/NC(=O)C(=O)N/N=C/c2ccc(NC(C)=O)cc2)cc1`, the EC50 is > 100 µM (inactive).

With `COc1cc(OC)c(OC)cc1/C=N/NC(=O)C(=O)N/N=C/c1cc(OC)c(OC)cc1OC`, the EC50 was > 100 µM (inactive).

On to `COc1cc(/C=N\NC(=O)C(=O)N/N=C/c2cc(OC)c(O)c(OC)c2)cc(OC)c1O`, for which the EC50 is 19.2 µM.

Regarding `CCOc1cccc(C=NNC(=O)c2cc(-c3cccn3C)n[nH]2)c1O`, the EC50 is 12.5 µM.

As for `O=C(N/N=C/c1ccc(O)cc1)C(=O)N/N=C/c1ccc(O)cc1`, the EC50 was 43.9 µM.

Regarding `Cc1cc(C(=O)NN=Cc2cccc([N+](=O)[O-])c2O)n[nH]1`, the EC50 was 14.6 µM.

For the compound `COc1cc(OC)cc(C(=O)NNC(=O)c2nn(C)c(=O)c3ccccc23)c1`, the 50% effective concentration (EC50) is 11.8 µM.

Regarding `CC1C(=O)NN=C1C(=O)NN=Cc1ccc(O)cc1O` (stereo unspecified), the EC50 was 10.7 µM.

As to `CCN(CC)c1ccc(/C=N/NC(=O)C(=O)N/N=C/c2ccc(N(CC)CC)cc2O)c(O)c1`, the EC50 was > 100 µM (inactive).

Take `COc1cc(/C=N/NC(=O)C(=O)N/N=C/c2cc(OC)c(OC)c(OC)c2)cc(OC)c1OC`: the EC50 is > 100 µM (inactive).

On to `O=C(CCN1C(=O)/C(=C/c2ccccc2Cl)SC1=S)NNC(=O)c1ccccc1O`, for which the EC50 was 25.5 µM.

As to `O=C(NN=Cc1c(O)ccc2ccccc12)c1[nH]ncc1Br`, the EC50 was 9.64 µM.

Turning to `COc1ccc(/C=N/NC(=O)C(=O)N/N=C/c2ccc(OC)c(OC)c2)cc1OC`, the EC50 was > 100 µM (inactive).
